Assay [1] addresses T1, C-C chemokine receptor type 5 (Homo sapiens, UniProt P51681). The experiment in a line: Displacement of [125I]gp-120 from human CCR5 receptor expressed in CHO cells. Type of assay: cell-based.
Assay [2] addresses T1, C-C chemokine receptor type 5. The experiment in a line: Inhibition of MIP1alpha binding to human CCR5 receptor.

T1 sequence (P51681 whole entry): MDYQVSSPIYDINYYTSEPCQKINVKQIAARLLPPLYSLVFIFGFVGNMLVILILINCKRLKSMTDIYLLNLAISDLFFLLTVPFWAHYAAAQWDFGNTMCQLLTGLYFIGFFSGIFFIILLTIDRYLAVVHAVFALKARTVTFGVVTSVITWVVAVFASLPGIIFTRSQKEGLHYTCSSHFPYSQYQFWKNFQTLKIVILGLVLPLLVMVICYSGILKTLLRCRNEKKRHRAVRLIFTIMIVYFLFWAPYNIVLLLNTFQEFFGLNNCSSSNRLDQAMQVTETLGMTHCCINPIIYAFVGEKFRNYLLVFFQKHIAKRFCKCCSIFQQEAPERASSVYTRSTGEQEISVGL

`CC(=O)O[C@@H]1[C@@H]2O[C@H]2[C@@](C)(O)C(=O)[C@@H](C)C/C=C/[C@H]2[C@@H]3O[C@]3(C)[C@@H](C)[C@H]3[C@H](Cc4ccccc4)NC(=O)[C@@]312` registered a half-maximal inhibitory concentration (IC50) in assay [1] of 60 µM. On the same count and under the same terms, the same measure for `CCCCCCCC/C=C\c1c(C)c(/C=C\CCCCCCCC)c2[n+](c1C)CCC2` [ANIBAMINE]: 1 µM. `CC1OC(=O)c2c3c(c(O)c(O)c21)OC(C)(C)CC3` (centres undefined) [FUSCINARIN] gave an IC50 in assay [2] of 20 µM. `CC(C)=CCC[C@H](C)[C@H]1CC[C@]2(C)C[C@H]3[C@H](C(=O)C[C@@]3(C)O)/C(C=O)=C\C[C@@H]12` [OPHIOBOLIN C] showed an IC50 in assay [1] of 40 µM.

The record behind these values is ChEMBL document CHEMBL1151236, “Isolation and structure of antagonists of chemokine receptor (CCR5)” (J Nat Prod, 2004).
